# Experimental data reported in paper PMC9866191, “Novel 9-Benzylaminoacridine Derivatives as Dual Inhibitors of Phosphodiesterase 5 and Topoisomerase II for the Treatment of Colon Cancer” (Molecules, 2023).
# Columns and labels:
# Assay type in all cases: cell-based
# [1] = system: CCRF-CEM; assay: NCI-60 one-dose screen; settings: Homo sapiens, Leukemia panel, single dose 10^−5 M, read-out: Growth inhibition %
# [2] = system: IGROV1; assay: NCI-60 one-dose screen; settings: Homo sapiens, IGROV-1; IGROV1, Ovarian Cancer panel; single dose 10^−5 M; read-out: Growth inhibition %
# [3] = system: panel of 60 human tumor cell lines; assay: NCI 60-cell line one-dose screen (mean); settings: mean of the 60 cell lines, single dose 10^−5 M, read-out: Mean % Growth Inhibition
# Method: The newly synthesized compounds were screened for their in vitro anticancer activity at the Developmental Therapeutic Program (DTP) of the National Cancer Institute (NCI). The screening involved a panel of 60 human tumor cell lines consisting of 9 tissue types to screen for potential anti-cancer agents. The primary screening of submitted compounds was performed by testing a single dose (10^−5 M) in the full NCI-60 panel. The detailed % inhibition by the tested compounds against the 60 cell lines is shown in Tables S1–S3 in the Supporting Information.
# [4] = system: SK-MEL-5; assay: NCI-60 one-dose screen; settings: Homo sapiens; SK-MEL-5, Melanoma panel; single dose 10^−5 M; read-out: Growth inhibition %
# [5] = system: DU-145; assay: NCI-60 one-dose screen; settings: Homo sapiens; DU-145, Prostate Cancer panel; single dose 10^−5 M; read-out: Growth inhibition %
# [6] = system: M14; assay: NCI-60 one-dose screen; settings: Homo sapiens; M14, Melanoma panel; single dose 10^−5 M; read-out: Growth inhibition %
# [7] = system: 786-0; assay: NCI-60 one-dose screen; settings: Homo sapiens; 786-0, Renal Cancer panel; single dose 10^−5 M; read-out: Growth inhibition %
# [8] = system: A498; assay: NCI-60 one-dose screen; settings: Homo sapiens; A498, Renal Cancer panel; single dose 10^−5 M; read-out: Growth inhibition %
# [9] = system: PC-3; assay: NCI-60 one-dose screen; settings: Homo sapiens; PC-3, Prostate Cancer panel; single dose 10^−5 M; read-out: Growth inhibition %
# [10] = system: SK-MEL-28; assay: NCI-60 one-dose screen; settings: Homo sapiens; SK-MEL-28, Melanoma panel; single dose 10^−5 M; read-out: Growth inhibition %
# [11] = system: EKVX; assay: NCI-60 one-dose screen; settings: Homo sapiens, Non-small cell lung panel, single dose 10^−5 M, read-out: Growth inhibition %
# [12] = system: MCF7; assay: NCI-60 one-dose screen; settings: Homo sapiens; MCF7, Breast Cancer panel; single dose 10^−5 M; read-out: Growth inhibition %
# [13] = system: BT-549; assay: NCI-60 one-dose screen; settings: Homo sapiens; BT-549, Breast Cancer panel; single dose 10^−5 M; read-out: Growth inhibition %
# [14] = system: SF-295; assay: NCI-60 one-dose screen; settings: Homo sapiens; SF-295, CNS Cancer panel; single dose 10^−5 M; read-out: Growth inhibition %
# [15] = system: NCI-H522; assay: NCI-60 one-dose screen; settings: Homo sapiens; NCI-H522, Non-small cell lung panel; single dose 10^−5 M; read-out: Growth inhibition %
# [16] = system: MDA-MB-435; assay: NCI-60 one-dose screen; settings: Homo sapiens; MDA-MB-435, Melanoma panel; single dose 10^−5 M; read-out: Growth inhibition %
# [17] = system: NCI/ADR-RES; assay: NCI-60 one-dose screen; settings: Homo sapiens, Ovarian Cancer panel, single dose 10^−5 M, read-out: Growth inhibition %
# [18] = system: ACHN; assay: NCI-60 one-dose screen; settings: Homo sapiens, Renal Cancer panel, single dose 10^−5 M, read-out: Growth inhibition %
# [19] = system: OVCAR-5; assay: NCI-60 one-dose screen; settings: Homo sapiens; OVCAR-5, Ovarian Cancer panel; single dose 10^−5 M; read-out: Growth inhibition %
# [20] = system: MOLT-4; assay: NCI-60 one-dose screen; settings: Homo sapiens; MOLT-4, Leukemia panel; single dose 10^−5 M; read-out: Growth inhibition %
# [21] = system: SK-OV-3; assay: NCI-60 one-dose screen; settings: Homo sapiens; SK-OV-3, Ovarian Cancer panel; single dose 10^−5 M; read-out: Growth inhibition %
# [22] = system: HOP-92; assay: NCI-60 one-dose screen; settings: Homo sapiens; HOP-92, Non-small cell lung panel; single dose 10^−5 M; read-out: Growth inhibition %
# [23] = system: SR; assay: NCI-60 one-dose screen; settings: Homo sapiens, Leukemia panel, single dose 10^−5 M, read-out: Growth inhibition %
# [24] = system: CAKI-1; assay: NCI-60 one-dose screen; settings: Homo sapiens; CAKI-1, Renal Cancer panel; single dose 10^−5 M; read-out: Growth inhibition %
# [25] = system: HT29; assay: NCI-60 one-dose screen; settings: Homo sapiens, HT-29; HT29, Colon Cancer panel; single dose 10^−5 M; read-out: Growth inhibition %
# [26] = system: NCI-H460; assay: NCI-60 one-dose screen; settings: Homo sapiens; NCI-H460, Non-small cell lung panel; single dose 10^−5 M; read-out: Growth inhibition %
# [27] = system: HCT-15; assay: NCI-60 one-dose screen; settings: Homo sapiens; HCT-15, Colon Cancer panel; single dose 10^−5 M; read-out: Growth inhibition %
# [28] = system: T-47D; assay: NCI-60 one-dose screen; settings: Homo sapiens, T47D, Breast Cancer panel, single dose 10^−5 M, read-out: Growth inhibition %
# [29] = system: SNB-75; assay: NCI-60 one-dose screen; settings: Homo sapiens; SNB-75, CNS Cancer panel; single dose 10^−5 M; read-out: Growth inhibition %
# [30] = system: NCI-H23; assay: NCI-60 one-dose screen; settings: Homo sapiens; NCI-H23, Non-small cell lung panel; single dose 10^−5 M; read-out: Growth inhibition %
# [31] = system: OVCAR-4; assay: NCI-60 one-dose screen; settings: Homo sapiens; OVCAR-4, Ovarian Cancer panel; single dose 10^−5 M; read-out: Growth inhibition %
# [32] = system: HL-60(TB); assay: NCI-60 one-dose screen; settings: Homo sapiens, Leukemia panel, single dose 10^−5 M, read-out: Growth inhibition %
SMILES,inhibition at 10 µM [1],inhibition at 10 µM [2],inhibition at 10 µM [3],inhibition at 10 µM [4],inhibition at 10 µM [5],inhibition at 10 µM [6],inhibition at 10 µM [7],inhibition at 10 µM [8],inhibition at 10 µM [9],inhibition at 10 µM [10],inhibition at 10 µM [11],inhibition at 10 µM [12],inhibition at 10 µM [13],inhibition at 10 µM [14],inhibition at 10 µM [15],inhibition at 10 µM [16],inhibition at 10 µM [17],inhibition at 10 µM [18],inhibition at 10 µM [19],inhibition at 10 µM [21],further results
"COc1cccc(CNc2c3ccccc3nc3ccccc23)c1OC [Compound 16, Acridin-9-yl-(2,3-dimethoxybenzyl)-amine]",60.5%,76.8%,63.9%,44.2%,58.2%,65.5%,61.2%,104%,62.4%,33.9%,63.7%,89.9%,40.3%,67%,59.9%,53.7%,66.8%,78.9%,57%,34%,inhibition at 10 µM [20]: 82.2%; inhibition at 10 µM [22]: 102%; inhibition at 10 µM [23]: 82.5%; inhibition at 10 µM [24]: 66.3%; inhibition at 10 µM [25]: 85.6%; inhibition at 10 µM [26]: 88.4%; inhibition at 10 µM [27]: 80.2%; inhibition at 10 µM [28]: 52.5%; inhibition at 10 µM [29]: 32%; inhibition at 10 µM [30]: 67.6%; inhibition at 10 µM [31]: 63.4%
"Fc1ccc(CNc2c3ccccc3nc3ccccc23)cc1F [Compound 22, Acridin-9-yl-(3,4-difluorobenzyl)-amine]",58.5%,77.2%,64.8%,33.8%,60.5%,56.9%,68.5%,90.2%,64.3%,17.6%,64.5%,87.1%,31.8%,70.2%,63%,50.8%,72.4%,80.7%,55.4%,44.3%,inhibition at 10 µM [32]: 65.5%; inhibition at 10 µM [22]: 109%; inhibition at 10 µM [23]: 83%; inhibition at 10 µM [24]: 74.7%; inhibition at 10 µM [25]: 86.6%; inhibition at 10 µM [26]: 85.4%; inhibition at 10 µM [27]: 82%; inhibition at 10 µM [28]: 52.1%; inhibition at 10 µM [29]: 33.8%; inhibition at 10 µM [30]: 64.8%; inhibition at 10 µM [31]: 64.6%
"COc1ccc(CNc2c3ccccc3nc3ccc(OC)cc23)cc1 [Compound 27, (2-Methoxyacridin-9-yl)-(4-methoxybenzyl)-amine]",80.6%,88.8%,87.9%,88.9%,80%,80.5%,85%,106%,94.5%,58.7%,75.8%,130%,57%,80.6%,73.8%,81%,83.8%,89.8%,69.3%,52.9%,inhibition at 10 µM [32]: 121%; inhibition at 10 µM [20]: 100%; inhibition at 10 µM [23]: 116%; inhibition at 10 µM [24]: 80.1%; inhibition at 10 µM [25]: 103%; inhibition at 10 µM [26]: 93.5%; inhibition at 10 µM [27]: 94.7%; inhibition at 10 µM [28]: 65.8%; inhibition at 10 µM [29]: 72.6%; inhibition at 10 µM [30]: 78.6%; inhibition at 10 µM [31]: 81.6%
"COc1ccc2nc3ccccc3c(NCc3ccc(Cl)cc3)c2c1 [Compound 29, (4-Chlorobenzyl)-(2-methoxyacridin-9-yl)-amine]",91.6%,83.7%,93.3%,88.3%,78.5%,186%,177%,91.4%,80.5%,92.9%,66.2%,156%,49.8%,74.2%,65.3%,75.9%,77.1%,82.9%,73.5%,36%,inhibition at 10 µM [32]: 164%; inhibition at 10 µM [20]: 108%; inhibition at 10 µM [23]: 130%; inhibition at 10 µM [24]: 78.6%; inhibition at 10 µM [25]: 102%; inhibition at 10 µM [26]: 87.5%; inhibition at 10 µM [27]: 95%; inhibition at 10 µM [28]: 50.7%; inhibition at 10 µM [29]: 42.4%; inhibition at 10 µM [30]: 71.7%; inhibition at 10 µM [31]: 75.5%
"Cc1ccc2nc3ccccc3c(NCc3ccccc3)c2c1 [Compound 30, Benzyl-(2-methylacridin-9-yl)-amine]",65.1%,84.2%,64.5%,41.2%,64.2%,54.4%,65.7%,88.6%,70.3%,22%,50.4%,88.8%,31%,72%,63%,41.8%,70.2%,76.8%,59.6%,35.7%,inhibition at 10 µM [32]: 59.4%; inhibition at 10 µM [22]: 107%; inhibition at 10 µM [23]: 95.9%; inhibition at 10 µM [24]: 64.5%; inhibition at 10 µM [25]: 88.4%; inhibition at 10 µM [26]: 82.9%; inhibition at 10 µM [27]: 82%; inhibition at 10 µM [28]: 36.4%; inhibition at 10 µM [29]: 35%; inhibition at 10 µM [30]: 64.2%; inhibition at 10 µM [31]: 67.2%
